Data as given in US6107316A, “Method for treating protozoal infections” (priority 1998, dated 2000).
Converted amounts (≈) assume the structure as drawn. Like-named read-outs stand apart in the source and are kept apart here. One block for each compound: values may come before it.

How the values were obtained:
[1] = tested on: Tetrahymena pyriformis; experiment: in vitro growth inhibitory activity against the ciliate Tetrahymena pyriformis; type: cell-based, Tetrahymena pyriformis (ATCC strain 30005); conditions: read-out: EC50 Tetrahymena pyriformis
Experimental: Compounds were evaluated for in vitro growth inhibitory activity against the ciliate Tetrahymena pyriformis, which was used as an indicator organism for the Apicomplexia since by several criteria the ciliates and Apicomplexa are closely related (Edlind T. D. et al., Mol. Phylogenet. Evol. vol. 5, pp. 359-367, 1996). T. pyriformis (ATCC strain 30005) was grown in 1 ml ATCC medium 357 at 25° C. in 4 ml polyallomer culture tubes without shaking. Compounds were dissolved in dimethylsufoxide (DMSO) and added to the cultures (containing 3,000 cells/ml) such that the final DMSO concentration was 0.1-0.3%. […] Parasitol. vol. 84, pp. 355-370, 1996) and Cryptosporidium parvum (Arrowood et al., FEMS Microbial. Lett., vol. 136, pp. 245-249, 1996) were tested for comparison.

[2] = toxicity towards MDBKF5D2 host cells (MTS); conditions: bovine, mdbkf5d2 cells, Cytotoxicity (percent toxicity)
Experimental: Compounds were tested for in vitro growth inhibitory activity against C. parvum grown in host MDBKF5D2 cells and for toxicity towards the host cells as follows. […] To test for toxicity towards the host cells, the media containing test compound (200 μl) were introduced into two wells of a 96 well microtiter plate containing confluent MDBKF5D2 cell monolayers and two wells without monolayers, and incubated at 37° C. in an 8% carbon dioxide environment. After 48 hours, the tetrazolium salt MTS (Owen's solution) and phenazine methosulfate were added to each well at concentrations of 333 μg/ml and 25 μM, respectively. The plate was returned to the incubator in the dark to develop for 2 hours, then 100 μl of each supernatant was transferred to a new microtiter plate and read spectrophotometrically in a plate reader at a wavelength of 490 nm. Percent toxicity was calculated by subtracting the mean optical density (OD) of the drug supernatants from the OD of medium control supernatants (no drug), dividing by the OD of the medium control, and multiplying by 100. To test for growth inhibitory activity against C. parvum, 3×10^4 oocysts per well were incubated in mentioned concentrations of each drug at 37° C. (8% CO2) on confluent MDBKF5D2 cell monolayers in 96 well microtiter plates. After 48 hours, the level of infection in each well was determined by means of an immunofluorescence assay. Percent inhibition of growth was calculated by subtracting the mean parasite count in the wells containing test compound from the mean parasite count in the medium control wells (no test compound), dividing by the mean parasite count in the medium control wells, and multiplying by 100. Paromomycin was included in the test as a standard.

[3] = tested on: Toxoplasma gondii; experiment: growth inhibition of T. gondii in L929 host cells ([3H]-uracil incorporation); type: cell-based; conditions: Toxoplasma gondii
Experimental: (§1) Compounds were tested for it vitro growth inhibitory activity against Toxoplasma gondii replication in L929 (L929-ATCC CCL 1, mouse connective tissue) or HFF (human foreskin fibroblast) host cells using the [^3 H]-uracil incorporation technique as follows. Host cells were grown in 96-well flat-bottom microtiter plates at 37° C in a 5% carbon dioxide environment in modified Eagle's medium containing penicillin, streptomycin and 10% fetal equine serum. Wells containing a homogeneous confluent monolayer of host cells were infected with T. gondii tachyzoites at a ratio of 3 parasites per cell (approximately 6×10^4 tachyzoites per well containing 100 μl of medium). […] Two hours post infection, the cultures were washed to remove free parasites and the various dilutions of test compound were added. Cells were subsequently collected at 24, 48 and 72 hours. Four hours prior to each harvesting 50 Al of [^3 H]-uracil (1 μCi) was added. Cells were collected using a cell harvester and incorporated radioactivity was measured using a scintillation counter. […]

[4] = tested on: Leishmania major; experiment: in vitro growth inhibitory activity against L. major promastigotes; type: cell-based
Excerpt: 35, pp. 2198-2202 (1991).

[5] = cytotoxicity towards HFF host cells (Cell Titer 96); conditions: human, % Inhibition of host cell growth (values in parenthesis)
Experimental: (§2) Cytotoxicity of the test compounds towards host cells was determined using the Cell Titer 96™ it (Promega Corporation, Madison, Wis.) as follows. Cells were seeded at a concentration of 5×10^3 cells per well containing 100 μl of medium in 96-well flat-bottom microtiter plates and incubated at 37° C. in a 5% carbon dioxide environment for 4 hours. Dilutions of the test compounds prepared as described above were then added, and incubation continued for 24, 48 or 72 hours. Four hours before each of these time points the growth medium containing test compound was replaced with 100 μl of fresh medium followed by addition of 16 μl of the kit dye solution. After incubation at 37° C. for another 4 hours, 100 μl of the kit solubilization/stop solution was added to each well, the contents of the wells were mixed and the plates kept 1 hour at room temperature. The plates were then read spectrophotometrically in a plate reader at a wavelength of 570 nm. […] Atovaquone was included in the test as a standard.

[6] = cytotoxicity towards L929 host cells (Cell Titer 96); conditions: mouse, % Inhibition of host cell growth (values in parenthesis)
Experimental: as §2

[7] = tested on: Giardia lamblia; experiment: in vitro growth inhibitory activity against Giardia lamblia; type: cell-based; conditions: Giardia duodenalis; concentration required to inhibit growth by 50%
Experimental: 35, pp. 2198-2202 (1991). EC50 values for test compounds, expressed in parts per million (ppm), were calculated from dose response curves and are presented in Table 4. As used herein, the terminology "EC50" means the concentration of test compound required to inhibit growth by 50% are compared to a control lacking the test compound. Metronidazole was included as a standard in the tests for comparative purposes.

[8] = tested on: Toxoplasma gondii; experiment: growth inhibition of T. gondii in HFF host cells ([3H]-uracil incorporation); type: cell-based; conditions: Toxoplasma gondii
Experimental: as §1

[9] = tested on: Entamoeba histolytica; experiment: in vitro growth inhibitory activity against E. histolytica; type: cell-based
Excerpt: 35, pp. 2198-2202 (1991). Metronidazole was included as a standard in the test for comparative purposes.

[10] = L929, 24 h, L929 host cells, 0.5 μg/ml, 24 hours, read-out: % Inhibition
[11] = L929, 24 h, L929 host cells, 5.0 μg/ml, 24 hours, read-out: % Inhibition
[12] = L929, 48 h, L929 host cells, 0.5 μg/ml, 48 hours, read-out: % Inhibition
[13] = L929, 48 h, L929 host cells, 5.0 μg/ml, 48 hours, read-out: % Inhibition
[14] = L929, 72 h, L929 host cells, 0.5 μg/ml, 72 hours, read-out: % Inhibition
[15] = L929, 72 h, L929 host cells, 5.0 μg/ml, 72 hours, read-out: % Inhibition
[16] = 24 h, HFF host cells, 0.5 μg/ml, 24 hours, read-out: % Inhibition
[17] = 24 h, HFF host cells, 5.0 μg/ml, 24 hours, read-out: % Inhibition
[18] = 48 h, HFF host cells, 0.5 μg/ml, 48 hours, read-out: % Inhibition
[19] = 48 h, HFF host cells, 5.0 μg/ml, 48 hours, read-out: % Inhibition
[20] = 72 h, HFF host cells, 0.5 μg/ml, 72 hours, read-out: % Inhibition
[21] = 72 h, HFF host cells, 5.0 μg/ml, 72 hours, read-out: % Inhibition

EC50 [4]: 0.2 µg/mL (≈ 0.592 µM)
EC50 [7]: 0.06 µg/mL (≈ 0.178 µM)
EC50 [9]: 38 µg/mL (≈ 113 µM)
Structure (SMILES): CCC(C)(NC(=O)c1cc(Cl)c(N)c(Cl)c1)C(=O)CCl (stereo not shown) [Compound 1]
EC50 ([1]; 24 hours, 25° C.): 0.02 µg/mL (≈ 0.0592 µM)
cytotoxicity at 48 h, 0.1 µM [2]: 0%
cytotoxicity at 48 h, 1 µM [2]: 0%
cytotoxicity at 48 h, 10 µM [2]: 19.9%
cytotoxicity at 48 h, 100 µM [2]: 35.7%
inhibition at 0.5 µg/mL [3, 10]: 7.8%
inhibition at 5 µg/mL [3, 11]: 10.8%
inhibition at 0.5 µg/mL [3, 12]: 80.4%
inhibition at 5 µg/mL [3, 13]: 75.5%
inhibition at 0.5 µg/mL [3, 14]: 95.4%
inhibition at 5 µg/mL [3, 15]: 78.2%
inhibition at 24 h ([5]; 0.5 μg/ml): 1.6%
inhibition at 48 h ([5]; 0.5 μg/ml): 0%
inhibition at 72 h ([5]; 0.5 μg/ml): 1.4%
inhibition at 24 h ([5]; 5.0 μg/ml): 14.7%
inhibition at 48 h ([5]; 5.0 μg/ml): 13.5%
inhibition at 72 h ([5]; 5.0 μg/ml): 47.6%
inhibition at 24 h ([6]; L929, 0.5 μg/ml): 1.5%
inhibition at 48 h ([6]; L929, 0.5 μg/ml): 11.6%
inhibition at 72 h ([6]; L929, 0.5 μg/ml): 31.3%
inhibition at 24 h ([6]; L929, 5.0 μg/ml): 19.7%
inhibition at 48 h ([6]; L929, 5.0 μg/ml): 61.8%
inhibition at 72 h ([6]; L929, 5.0 μg/ml): 81.1%
inhibition at 0.5 µg/mL [8, 16]: 47.6%
inhibition at 5 µg/mL [8, 17]: 88%
inhibition at 0.5 µg/mL [8, 18]: 96.1%
inhibition at 5 µg/mL [8, 19]: 99.3%
inhibition at 0.5 µg/mL [8, 20]: 91.3%
inhibition at 5 µg/mL [8, 21]: 99.2%

EC50 [4]: 0.1 µg/mL (≈ 0.294 µM)
EC50 [7]: 0.03 µg/mL (≈ 0.0881 µM)
Structure (SMILES): CCC(C)(NC(=O)c1cc(Cl)c(F)c(Cl)c1)C(=O)CCl (stereo not shown) [Compound 9]
EC50 ([1]; 24 hours, 25° C.): 0.004 µg/mL (≈ 0.0117 µM)
cytotoxicity at 48 h, 0.1 µM [2]: 6.7%
cytotoxicity at 48 h, 1 µM [2]: 0%
cytotoxicity at 48 h, 10 µM [2]: 0%
cytotoxicity at 48 h, 100 µM [2]: 81.4%
inhibition at 0.5 µg/mL [3, 10]: 29%
inhibition at 5 µg/mL [3, 11]: 28.2%
inhibition at 0.5 µg/mL [3, 12]: 86.3%
inhibition at 5 µg/mL [3, 13]: 77.3%
inhibition at 0.5 µg/mL [3, 14]: 90.9%
inhibition at 5 µg/mL [3, 15]: 95.6%
inhibition at 24 h ([5]; 0.5 μg/ml): 1.1%
inhibition at 48 h ([5]; 0.5 μg/ml): 1.1%
inhibition at 72 h ([5]; 0.5 μg/ml): 0%
inhibition at 24 h ([5]; 5.0 μg/ml): 2.4%
inhibition at 48 h ([5]; 5.0 μg/ml): 21.3%
inhibition at 72 h ([5]; 5.0 μg/ml): 6.3%
inhibition at 24 h ([6]; L929, 0.5 μg/ml): 6.3%
inhibition at 48 h ([6]; L929, 0.5 μg/ml): 0%
inhibition at 72 h ([6]; L929, 0.5 μg/ml): 8.5%
inhibition at 24 h ([6]; L929, 5.0 μg/ml): 20.2%
inhibition at 48 h ([6]; L929, 5.0 μg/ml): 65.2%
inhibition at 72 h ([6]; L929, 5.0 μg/ml): 90.4%
inhibition at 0.5 µg/mL [8, 16]: 58.7%
inhibition at 5 µg/mL [8, 17]: 74.3%
inhibition at 0.5 µg/mL [8, 18]: 77.6%
inhibition at 5 µg/mL [8, 19]: 97%
inhibition at 0.5 µg/mL [8, 20]: 0%
inhibition at 5 µg/mL [8, 21]: 96.3%

Structure (SMILES): CCC(C)(NC(=O)c1cc(Cl)c(C)c(Cl)c1)C(=O)CCl (stereo not shown) [Compound 10]
EC50 ([1]; 24 h): 0.004 µg/mL (≈ 0.0119 µM)
inhibition at 0.5 µg/mL ([3]; L929, 24 h): 0%
inhibition at 5 µg/mL ([3]; L929, 24 h): 20.5%
inhibition at 25 µg/mL ([3]; L929, 24 h): 19.6%
inhibition at 0.5 µg/mL ([3]; L929, 48 h): 0%
inhibition at 5 µg/mL ([3]; L929, 48 h): 80.5%
inhibition at 25 µg/mL ([3]; L929, 48 h): 86.5%
inhibition at 0.5 µg/mL ([3]; L929, 72 h): 2.3%
inhibition at 5 µg/mL ([3]; L929, 72 h): 90.4%
inhibition at 25 µg/mL ([3]; L929, 72 h): 98%
EC50 [4]: 0.2 µg/mL (≈ 0.594 µM)
inhibition at 24 h ([5]; 0.5 μg/ml): 0%
inhibition at 48 h ([5]; 0.5 μg/ml): 0%
inhibition at 72 h ([5]; 0.5 μg/ml): 3%
inhibition at 24 h ([5]; 5.0 μg/ml): 1.4%
inhibition at 48 h ([5]; 5.0 μg/ml): 7.6%
inhibition at 72 h ([5]; 5.0 μg/ml): 3.5%
inhibition at 24 h ([5]; 25.0 μg/ml): 6.7%
inhibition at 48 h ([5]; 25.0 μg/ml): 9.3%
inhibition at 72 h ([5]; 25.0 μg/ml): 4.8%
inhibition at 24 h ([6]; L929, 0.5 μg/ml): 3.7%
inhibition at 48 h ([6]; L929, 0.5 μg/ml): 0%
inhibition at 72 h ([6]; L929, 0.5 μg/ml): 2.2%
inhibition at 24 h ([6]; L929, 5.0 μg/ml): 2.8%
inhibition at 48 h ([6]; L929, 5.0 μg/ml): 0%
inhibition at 72 h ([6]; L929, 5.0 μg/ml): 3.5%
inhibition at 24 h ([6]; L929, 25.0 μg/ml): 2.2%
inhibition at 48 h ([6]; L929, 25.0 μg/ml): 4.5%
inhibition at 72 h ([6]; L929, 25.0 μg/ml): 7.6%
EC50 [7]: 0.06 µg/mL (≈ 0.178 µM)
inhibition at 0.5 µg/mL ([8]; 24 h): 2.3%
inhibition at 5 µg/mL ([8]; 24 h): 8.8%
inhibition at 25 µg/mL ([8]; 24 h): 63.4%
inhibition at 0.5 µg/mL ([8]; 48 h): 2.1%
inhibition at 5 µg/mL ([8]; 48 h): 1.4%
inhibition at 25 µg/mL ([8]; 48 h): 95.7%
inhibition at 0.5 µg/mL ([8]; 72 h): 6.3%
inhibition at 5 µg/mL ([8]; 72 h): 0%
inhibition at 25 µg/mL ([8]; 72 h): 97.3%
EC50 [9]: 6 µg/mL (≈ 17.8 µM)
